Data: patent publication US10301630B2, “Methods and compositions for unsilencing imprinted genes” (The University of North Carolina at Chapel Hill, priority 2010, dated 2019)
Values joined by “and” are separate entries in the source; they are usually repeats but may differ in a detail not shown here. Equal values may be shown once. Read-outs that look alike come from different tables or passages of the source.

Columns and labels:
[1] = tested on: paternal Ube3a-YFP allele in spinal neurons; experiment: Intrathecal delivery, paternal Ube3a-YFP in spinal cord; assay type: in vivo, mouse; conditions: for unsilencing of paternal Ube3a-YFP after intrathecal injection: i.t. 5 μl, irinotecan 1000 nmol/day for 5 days, topotecan 200 nmol/day for 6 days
Experimental: A soft cloth is placed over the head and upper body of the animal to keep him calm. The experimenter grasps the pelvic girdle of mouse with his thumb and forefinger. Next, the experimenter traces the spinal column of the mouse with a needle. The disposable 30 gauge ½ inch needle is connected to a 50 ul Luer-hub Hamilton syringe. As long as the experimenter senses the bones of the spinal column, the angle of syringe is lowered at 45 degree to the horizontal. The experimenter inserts the needle 1 mm further to the spinal column. Following the 5 ul injection, the syringe is rotated slightly and removed. […] They are 100, 500 and 1000 nmole. Paternal Ube3a-YFP (+/Ey) mice are used throughout these experiments.
For immunocytochemistry in spinal cord, lumbosacral spinal cord (approximately L1 to S2 and inclusive of the area corresponding to intrathecal injection site) was removed from each mouse and immersion-fixed for 8 h in cold 4% paraformaldehyde/0.1M phosphate buffer (pH 7.4). After a period of cryoprotection in 30% sucrose in 0.1M phosphate buffer, each spinal cord was sectioned on a cryostat at 40 μm. Sections to be stained immediately were collected in PBS; sections to be saved for future study were placed in a PBS/ethylene glycol/glycerol solution and stored at −20° C. Every fourth section was incubated overnight in a mixture containing a chicken IgY to GFP (1:750; Ayes Labs, GFP-1020) and a mouse IgG1 to NeuN (1:250; Millipore, MAB377) and treated the following day with a cocktail containing goat anti-chicken IgY-Alexa 488 (1:200; Invitrogen, A-11039), goat anti-mouse IgG1-Alexa 568 (1:200; Invitrogen, A-21124), and DRAQ5 (1:10,000; Axxora, BOS-889-001). Immunostained sections were mounted from PBS onto SuperFrostPlus Slides (Fisher), which were then air-dried briefly, rehydrated with PBS, and coverslipped with FluoroGel (Electron Microscopy Sciences). For quantification studies, sections were imaged using a Nikon Eclipse 80i with Surveyor mosaic imaging software. For qualitative assessment, sections were imaged as maximal projections on a Zeiss LSM 510.
For cell counting in spinal cord, 14 to 18 sections per mouse in segments corresponding to the injection site were analyzed. Slices were imaged using a Nikon Eclipse 80i microscope equipped with a QimagingRetigaExi high-speed CCD camera system and Surveyor mosaic imaging software using a 10× objective. For qualitative purposes, selected sections were also imaged on a Zeiss LSM 510 confocal microscope. Cells were counted manually by individuals blind to the experimental groups from raw (unprocessed) images using ImageJ and Cellprofiler^35 software.
YFP intensity levels from confocal XYZ image stacks were measured using a semi-automated macro with ImageJ. Individual YFP-positive cells were selected by eye, the criteria being the Z plane having the largest area for each cell. Cell regions were defined by intensity thresholding or manual tracing and the average YFP intensity and percent saturation were calculated for each cell.
Following the injection, the syringe is rotated slightly and removed.

[2] = tested on: paternal Ube3a-YFP allele; experiment: High-content imaging of paternal Ube3a-YFP unsilencing in primary cortical neurons; assay type: cell-based, mouse; conditions: for EC50 / EC20 / maximal fold induction: Mus musculus; for EC20: Table 3, unsilencing the paternal allele of Ube3a-YFP in cultured neurons, 1 nM to 30 μM, read-out: Potency EC20; for unsilencing of paternal Ube3a-YFP in dose-response experiments: cultured Ube3a m+/pYFP neurons
Experimental: In all screening assays, primary cortical neurons from Ube3a-YFP mice are isolated from embryonic day 15.5 animals, and the genotype of animals is determined to identify mice that encode the Ube3a-YFP transgene on the paternal allele. Freshly isolated cortical neurons are seeded into 384 well plates and cultured for 7 days. At day in vitro seven, screening is performed using multiple chemical libraries and compound concentration of 10 μM in 0.2% DMSO vehicle. After 72 h of drug exposure (run in quadruplicate wells), neurons are fixed with 4% para formaldehyde and processed for immunofluorescence using an anti-GFP-Alexa 488 conjugated antibody to enhance the signal of Ube3a-YFP in neurons. For image analyses, individual wells of immunofluorescence-processed plates are imaged fro DAPI and GFP fluorescence using the BD-Pathway 855 high-content imaging microscope. Ube3a-YFP fluorescence intensities in individual neurons are determined in drug-treated wells and normalized to 0.2% DMSO-treated (i.e., vehicle control) wells using custom written macros and algorithms using NIH Image J and Arrayscan Cell Profiler software programs. These image analyses enable masking of nuclei in individual neurons and determination of Ube3a-YFP fluorescence intensity in the nuclei of individual neurons.
For these studies, DIV 7 primary neurons encoding paternal Ube3a-YFP are dose treated with hit compounds across seven orders of magnitude in full and half log molar concentrations (3 pM to 30 μM). Ube3a-YFP fluorescence intensities in living neurons are determined again by high-content imaging microscopy after 72 h treatments. The dose response results are analyzed by least squares sigmoidal dose-response curve fitting models using Graphpad Prism 5.0 (Graphpad Software, Inc.). The calculated EC50 values (potencies) and Y value top plateau (estimated efficacies or Emax) enable comparative analyses of the relative potency and efficacy of the identified compounds.
Primary cortical neurons were isolated from E13.5-16.5 Ube3a-YFP mice. Screening was performed in quadruplicate at DIV7 using multiple chemical libraries and a compound concentration of 10 μM in 0.2% DMSO vehicle. After 72 h of drug exposure, neurons were fixed with 4% paraformaldehyde in PBS for 35 min, permeabilized with 0.3% Triton X-100 in PBS on ice for 30 min, and blocked by 5% goat serum with 0.1% Triton X-100 in PBS at room temperature for 1 hr. Cells were incubated with a rabbit polyclonal antibody to GFP (1:1000, Novus Biologicals, NB600-308) at room temperature for 1 hr and then incubated with Alexa Fluor 488 goat antibody to rabbit IgG (1:200, Invitrogen, A11008) and DAPI (1:10,000, Invitrogen, D-1306) at room temperature for 30 min. Individual wells of immunofluorescence-processed plates were imaged for DAPI or Alexa 488 fluorescence using the BD Pathway 855 high-content imaging microscope with a 488 excitation/515 long pass filter. Antibody-enhanced UBE3A-YFP fluorescence intensities were determined from individual neurons in drug-treated wells and normalized to neurons in wells treated with 0.2% DMSO (vehicle control). Analyses were performed with custom macros and algorithms using NIH Image J and Arrayscan Cell Profiler software programs (Thermo Scientific/Cellomics). These image analyses enabled masking of nuclei in individual neurons and determination of UBE3A-YFP fluorescence intensities in the nuclei of individual neurons (FIG. 16).
DIV7 primary neurons from Ube3a^m+/pYFP mice were dose-treated for 72 h with topoisomerase I and II inhibitors in ten point dose-responses in full and half log molar concentrations (1 nM to 30 μM). Neurons were fixed, processed for immunofluorescence, and UBE3A-YFP fluorescence intensities were again determined by high-content imaging microscopy.

[3] = Cortical neurone, Table 1, unsilencing paternal Ube3a-YFP, cortical neurons, 72 h, read-out: EC50
[4] = Primary cortical neuron, concentration-response curves, 72 hr, n=4, mean±SEM, read-out: EC50 for unsilencing paternal Ube3a-YFP (FIG. 7)

Row | Compound | unsilencing of paternal Ube3a-YFP after intrathecal injection [1] | unsilencing of paternal Ube3a-YFP in the primary screen ([2]; 10 μM for 72 hours, Ube3a m+/pYFP neurons) | EC50 [2, 3] [nM] | EC20 ([2]; Neuron, 72 h) [nM] | EC50 [2, 4] [nM] | unsilencing of paternal Ube3a-YFP in dose-response experiments ([2]; 72 h) | number of paternal UBE3A-YFP-positive cells in lumbar spinal cord ([1]; 50 nmol/5 μL i.t. once daily, 10 of 14 days) | expression level of unsilenced paternal UBE3A-YFP versus maternal controls ([1]; i.t. 50 nmol/day for 10 of 14 days) | percentage of UBE3A-YFP+ cells that were NeuN+ ([1]; i.t. 50 nmol/day for 10 of 14 days, paternal Ube3a-YFP mice) | time unsilencing of Ube3a-YFP was maintained after cessation of treatment ([1]; i.t. 50 nmol/day for 10 of 14 days, spinal neurons) | persistence of unsilencing 14 days after cessation ([1]; i.t. 100 nmol/day on 10 of 14 days, 14 days washout) | effectiveness at unsilencing in spinal cord compared with irinotecan ([1]; i.t., FIG. 8 Panels B and C) | maximal fold induction ([2]; Cortical neurone, 72 h, read-out: Efficacy Emax (fold over control)) | maximal fold induction ([2]; Neuron, 72 h, read-out: Efficacy Emax (fold over vehicle)) | relative potency versus irinotecan (FIG. 7) ([2]; unsilencing paternal Ube3a-YFP) [times] | relative potency versus irinotecan (Example 16) ([2]; upregulation of paternal UBE3A-YFP in cultured neurons) [×]
1 | CCc1c2c(nc3ccc(OC(=O)N4CCC(N5CCCCC5)CC4)cc13)-c1cc3c(c(=O)n1C2)COC(=O)[C@]3(O)CC [Irinotecan] | unsilenced the paternal Ube3a-YFP allele in spinal neurons and in DRG neurons | upregulated UBE3A-YFP fluorescence | 994 ± 10 | 994 ± 13 | 996 ± 10 | upregulate paternal UBE3A-YFP in a dose- and time-dependent manner | – | – | – | – | – | – | – | – | – | –
2 | CC[C@@]1(O)C(=O)OCc2c1cc1n(c2=O)Cc2cc3c(CN(C)C)c(O)ccc3nc2-1 [Topotecan] | unsilenced the paternal Ube3a-YFP allele in spinal neurons and in DRG neurons | – | 54 ± 1.2 | 54 ± 3.4 | 55 ± 1.2 | upregulate paternal UBE3A-YFP in a dose- and time-dependent manner | significantly increased the number of paternal UBE3A-YFP-positive cells | expressed at levels comparable to maternal UBE3A-YFP controls | > 93% and 93.25% | at least 12 weeks | unsilencing of paternal Ube3a persists | even more effective at unsilencing paternal Ube3a in spinal cord | 2.25 ± 0.07 | 2.25 ± 0.05 | ~20 | 20
